The nature of the first data set: solvent given as SMILES. To be noted: in C1CCCCC1.
On to `CC(=O)c1ccc(-c2nc3ccc(N(C)C)cc3s2)cc1`, for which the emission maximum was determined as 435 nm.
On to `N#Cc1c(-c2ccccc2)cc(-c2ccccc2)[nH]c1=S`, for which the emission maximum is on record as 510 nm.
`Cc1ccc(C2=C3C=C(I)C(I)=[N+]3[B-](F)(F)n3c2cc(I)c3I)cc1`: the emission maximum is on record as 593 nm.
Molecule `COc1c2ccccc2c(OC)c2c1c1c(F)cccc1n2C` had an emission maximum of 411 nm.

Still in this data set, the particulars now being: in C1CCOC1.
In the case of `N#Cc1ccc(/C=C/C(F)(F)F)c(N)c1`, the emission maximum stood at 439 nm.
Molecule `COC(=O)c1ccc(/C=C/C(F)(F)F)c(N)c1` came in with an emission maximum of 447 nm.
In the case of `COc1ccc(-c2cc3oc(=O)cc(C)c3cc2-c2ccc(OC)c(OC)c2)cc1OC`, the emission maximum is recorded as 457 nm.
The same measure, in the same setting: as for `CCCCC(CC)Cn1c2ccc(C(=C(C#N)C#N)c3ccccc3)cc2c2c(-c3ccc(Br)cc3)c3c(c(-c4ccc(Br)cc4)c21)c1cc(C(=C(C#N)C#N)c2ccccc2)ccc1n3CC(CC)CCCC` (configuration not stated), the figure is 584 nm; as for `CCOC(=O)C1=C(C)NC2=C(C(=O)c3ccccc32)C1c1ccc(N(C)C)cc1` (configuration not stated), 497 nm; as for `CC(C)(C)c1ccc(C2=C(c3ccc(N(c4ccccc4)c4ccccc4)cc3)S(=O)(=O)c3c2sc(-c2ccc(N(c4ccccc4)c4ccccc4)cc2)c3-c2ccc(C(C)(C)C)cc2)cc1`, 591 nm.
The molecule `Clc1cnc2nn3ccccc3c2n1` returned an emission maximum of 448 nm.

The data set is the same for the next values; noted with them: in C1COCCO1.
The molecule `CCOC(=O)C1=C(C)NC2=C(C(=O)c3ccccc32)C1c1ccc(N(C)C)cc1` (configuration not stated) had an emission maximum of 490 nm.
Still for that read-out and setting: the figure for `N#Cc1c(-c2ccccc2)cc(-c2ccccc2)[nH]c1=S` is 512 nm.

The data set is the same for the next values; noted with them: in CC#N.
Molecule `CCN(CC)c1ccc(/C=C/C(=O)c2c(O)cc(C)oc2=O)cc1` displayed an emission maximum of 562 nm.
Still for that read-out and setting: the figure for `CC(=O)c1ccc(-c2nc3ccc(N(C)C)cc3s2)cc1` is 588 nm; for `CCCCC(CC)Cn1c2ccc(C(=C(C#N)C#N)c3ccccc3)cc2c2c(-c3ccc(Br)cc3)c3c(c(-c4ccc(Br)cc4)c21)c1cc(C(=C(C#N)C#N)c2ccccc2)ccc1n3CC(CC)CCCC` (configuration not stated) it is 536 nm; for `CCOC(=O)C1=C(C)NC2=C(C(=O)c3ccccc32)C1c1ccc(N(C)C)cc1` (configuration not stated) it is 542 nm.
Same read-out and setting: as for `Cn1ccc(-c2nc3ccccc3nc2/C=C/N2CCCC2)c1`, the figure is 579.08 nm; as for `N#Cc1c(-c2ccccc2)cc(-c2ccccc2)[nH]c1=S`, 495 nm.
`COc1cc2cc(C#Cc3ccc(/C=C(\C#N)C(=O)O)cc3)c(=O)oc2cc1OC` came in with an emission maximum of 464 nm.
As to `Cc1ccc(C2=C3C=C(I)C(I)=[N+]3[B-](F)(F)n3c2cc(I)c3I)cc1`, the emission maximum came to 591 nm.
For `O=c1c2cc(F)ccc2nc2n1[B-](F)(F)[n+]1ccccc1-2`, the emission maximum is 437 nm.
As for `COc1ccc2n1[B-](F)(F)[N+]1=CC=CC1=C2c1ccccc1`, the emission maximum amounted to 513 nm.
The molecule `COc1c2ccccc2c(OC)c2c1c1c(F)cccc1n2C` yielded an emission maximum of 421 nm.

The data set is the same for the next values; noted with them: in CC(C)O.
In turn, `CC(=O)c1ccc(-c2nc3ccc(N(C)C)cc3s2)cc1` returned an emission maximum of 611.34 nm.

The data set is the same for the next values; noted with them: in CCCCCC.
Consider `COc1ccc2n1[B-](F)(F)[N+]1=CC=CC1=C2c1ccccc1`, for which the emission maximum came out at 514 nm.
On to `CC(C)c1ccc2ccc3cccc4ccc1c2c34`, for which the emission maximum is recorded as 376 nm.

The same data set, now with this note: in CCCCO.
Turning to `N#Cc1c(-c2ccccc2)cc(-c2ccccc2)[nH]c1=S`, the emission maximum is on record as 506 nm.

The data set is the same for the next values; noted with them: in CCCO.
Turning to `CCN(CC)c1ccc(/C=C/C(=O)c2c(O)cc(C)oc2=O)cc1`, the emission maximum was 562 nm.
`N#Cc1c(-c2ccccc2)cc(-c2ccccc2)[nH]c1=S` gave an emission maximum of 493 nm.

Still in this data set, the particulars now being: in CCO.
The molecule `CCN(CC)c1ccc(/C=C/C(=O)c2c(O)cc(C)oc2=O)cc1` yielded an emission maximum of 570 nm.
In turn, `CCCCC(CC)Cn1c2ccc(C(=C(C#N)C#N)c3ccccc3)cc2c2c(-c3ccc(Br)cc3)c3c(c(-c4ccc(Br)cc4)c21)c1cc(C(=C(C#N)C#N)c2ccccc2)ccc1n3CC(CC)CCCC` (configuration not stated) registered an emission maximum of 576 nm.
`CCOC(=O)C1=C(C)NC2=C(C(=O)c3ccccc32)C1c1ccc(N(C)C)cc1` (configuration not stated) gave an emission maximum of 559 nm.
As for `N#Cc1c(-c2ccccc2)cc(-c2ccccc2)[nH]c1=S`, the emission maximum amounted to 465 nm.
The same measure, in the same setting: as for `CNc1ccc2nc3cc(Cl)c(Cl)cc3nc2c1`, the figure is 599 nm; as for `Cc1ccc(C2=C3C=C(I)C(I)=[N+]3[B-](F)(F)n3c2cc(I)c3I)cc1`, 595 nm; as for `Cc1c(COC(=O)c2ccccc2)n2c(OCC(=O)c3ccccc3)c(C)c(=O)n2c1=O`, 457 nm.
As to `Cc1ccccc1-c1c2ccc(=[N+]3CCOCC3)cc-2oc2cc(N3CCCCC3)ccc12`, the emission maximum amounted to 582 nm.
For the molecule `Cc1c(COC(=O)Cc2cccc3ccccc23)n2c(OCC(=O)Cc3cccc4ccccc34)c(C)c(=O)n2c1=O`, the emission maximum came out at 458 nm.

Staying with this data set, now noted: in CCOC(C)=O.
As for `CCN(CC)c1ccc(/C=C/C(=O)c2c(O)cc(C)oc2=O)cc1`, the emission maximum is listed as 545 nm.
Still for that read-out and setting: the figure for `CCCCC(CC)Cn1c2ccc(C(=C(C#N)C#N)c3ccccc3)cc2c2c(-c3ccc(Br)cc3)c3c(c(-c4ccc(Br)cc4)c21)c1cc(C(=C(C#N)C#N)c2ccccc2)ccc1n3CC(CC)CCCC` (configuration not stated) is 582 nm; for `CCn1c(-c2ccc(-c3ccc4ccc5cccc6ccc3c4c56)cc2)c(-c2ccc3ccccc3c2)c(-c2ccc3ccccc3c2)c1-c1ccc(-c2ccc3ccc4cccc5ccc2c3c45)cc1` it is 460 nm; for `N#Cc1c(-c2ccccc2)cc(-c2ccccc2)[nH]c1=S` it is 502 nm.
Still for that read-out and setting: as for `Cc1ccc(C2=C3C=C(I)C(I)=[N+]3[B-](F)(F)n3c2cc(I)c3I)cc1`, the figure is 591.5 nm.
Turning to `COc1ccc2n1[B-](F)(F)[N+]1=CC=CC1=C2c1ccccc1`, the emission maximum is 514 nm.

The same data set, now with this note: in CCOCC.
Turning to `N#Cc1c(-c2ccccc2)cc(-c2ccccc2)[nH]c1=S`, the emission maximum was 518 nm.

Still in this data set, the particulars now being: in CN(C)C=O.
For `CC(C)(C)c1cc(C(C)(C)C)c2oc3c(c2c1)C=CN1C(=O)C2=C4c5oc6c(C(C)(C)C)cc(C(C)(C)C)cc6c5C=CN4C(=O)C2=C31`, the emission maximum is 658 nm.
On the same count and under the same terms, the figure for `CCCCC(CC)Cn1c2ccc(C(=C(C#N)C#N)c3ccccc3)cc2c2c(-c3ccc(Br)cc3)c3c(c(-c4ccc(Br)cc4)c21)c1cc(C(=C(C#N)C#N)c2ccccc2)ccc1n3CC(CC)CCCC` (configuration not stated) is 535 nm; for `CCOC(=O)C1=C(C)NC2=C(C(=O)c3ccccc32)C1c1ccc(N(C)C)cc1` (configuration not stated) it is 540 nm; for `N#Cc1c(-c2ccccc2)cc(-c2ccccc2)[nH]c1=S` it is 505 nm.

The data set is the same for the next values; noted with them: in CO.
In turn, `CC(=O)c1ccc(-c2nc3ccc(N(C)C)cc3s2)cc1` had an emission maximum of 676 nm.
With `CCOC(=O)C1=C(C)NC2=C(C(=O)c3ccccc32)C1c1ccc(N(C)C)cc1` (configuration not stated), the emission maximum is 561 nm.

Source of the values: the Deep4Chem optical property database.
